{"source": "patent US20110030103A1", "about": "“LIPOPEPTIDES AND LIPOPEPTIDE SYNTHETASES” (priority 2007, published 2011)", "origin": "cited, not measured here", "tested_on": "bacteria, including both Gram-negative and Gram-positive bacteria", "conditions": "minimal antibacterial effects; background statement", "note": "*1 amine or outer side, *2 acyl side, *3 side chain or, on linkers, in order; H or OH if unused. Where a SMILES comes first, the peptide text is derived from it. Bridges are numbered along the chain shown (N, C = ends). [ ]: non-standard residue; d: D form. X1 = CC(C)CCCCCCCCC[C@H](CC(=O)[*:1])O[*:2]", "data": [{"compound": "CC(C)CCCCCCCCC[C@@H]1CC(=O)N[C@@H](CCC(=O)O)C(=O)N[C@@H](CC(C)C)C(=O)N[C@H](CC(C)C)C(=O)N[C@@H](C(C)C)C(=O)N[C@@H](CC(=O)O)C(=O)N[C@H](CC(C)C)C(=O)N[C@@H](CC(C)C)C(=O)O1", "note": "[surfactin] (EL[dL]VD[dL]L; linker N-C via X1)", "values": [{"measurement": "minimum inhibitory concentration (MIC)", "result": "12 to 50", "unit": "µg/mL"}]}]}
